Usually IC50 stands for the concentration that inhibits the measured activity by half.

Our source for the IC50 values is US10500194B2, “Covalent small molecule DCN1 inhibitors and therapeutic methods using the same” (THE REGENTS OF THE UNIVERSITY OF MICHIGAN, priority 2017, dated 2019).

Sequence of DCN1 (Q96GG9 58-259): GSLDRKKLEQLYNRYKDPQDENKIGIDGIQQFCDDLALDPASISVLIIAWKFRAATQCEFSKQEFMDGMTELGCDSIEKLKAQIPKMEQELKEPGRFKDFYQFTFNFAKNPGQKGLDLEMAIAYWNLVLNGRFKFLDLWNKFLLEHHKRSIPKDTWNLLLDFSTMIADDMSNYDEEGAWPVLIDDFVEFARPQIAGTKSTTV

This test has as its target DCN1 (Homo sapiens (Human), UniProt Q96GG9). In words: Competitive FP binding assay. To be noted: read-out: Binding affinity to DCN1 (IC50). As for the experimental part:
The Fluorescence Polarization (FP) competitive binding assays were performed to accurately determine the binding affinities of our DCN1 inhibitors. A novel FAM labeled fluorescent probe compound (46) was designed and synthesized based on one of our potent small molecule DCN1 inhibitors. Equilibrium dissociation constants (Kd) values of 46 to both DCN1 and DCN2 proteins were determined from protein saturation experiments by monitoring the total FP values of mixtures composed with the fluorescent probe at a fixed concentration and proteins with increasing concentrations up to full saturation. Serial dilutions of proteins were mixed with 46 to a final volume of 200 μl in the assay buffer (100 mM phosphate buffer, pH=6.5, with 0.02% Tween-20 and 2% DMSO). Final probe concentration was 5 nM for both assays. Plates were incubated at room temperature for 30 minutes with gentle shaking to assure equilibrium. FP values in millipolarization units (mP) were measured using the Infinite M-1000 plate reader (Tecan U.S., Research Triangle Park, N.C.) in Microfluor 1 96-well, black, round-bottom plates (Thermo Scientific, Waltham, Mass.) at an excitation wavelength of 485 nm and an emission wavelength of 530 nm. Kd values of 46 were calculated by fitting the sigmoidal dose-dependent FP increases as a function of protein concentrations using Graphpad Prism 6.0 software (Graphpad Software, San Diego, Calif.).
Human DCN1 (residues 58-259) were cloned into a pDEST17 plasmid containing an N-terminal His6 tag. DCN2 (residues 62-259), DCN3 (residues 86-304), DCN4 (residues 102-292) and DCN5 (residues 47-237) were cloned into an N-terminal His6-TEV expression vector. Pure proteins were derived from the same expression and purification protocols. Plasmids were transformed into Rosetta2 cells, the cells were grown in Terrific Broth at 37° C. to an O.D.600>1.0 and induced with 0.4 mM Isopropyl β-D-1-thiogalactopyranoside overnight at 20° C. The pelleted cells were resuspended in lysis buffer containing 25 mM Tris-HCl, pH 7.5, 200 mM NaCl and protease inhibitors, sonicated and centrifuged at 34,000×g for 45 minutes to remove debris. Cleared lysate was incubated with Ni-NTA resin (Qiagen) prewashed with lysis buffer, for 1 hr at 4° C. The matrix was loaded into a column then washed with 25 mM Tris-HCl, pH 7.5, 200 mM NaCl and 10 mM imidazole. Protein was eluted with 25 mM Tris-HCl, pH 7.5, 200 mM NaCl and 300 mM imidazole, concentrated and applied to a Superdex 75 (GE Healthcare) column pre-equilibrated with 25 mM Tris pH 7.5, 200 mM NaCl and 1 mM DTT. For DCN2-5, the N-terminal His6 tag was removed prior to gel filtration. Tag removal was achieved through incubation with TEV protease during overnight dialysis against 25 mM Tris pH 7.5, 200 mM NaCl and 1 mM DTT and a second Ni-NTA column. DCN2-5 proteins were stored at −80° C. in 1 mg/mL fractions containing 5% glycerol. The uncleaved DCN1 protein was stored at −80° C. without glycerol.
As to `C=C(CN1CC(F)(F)C1)C(=O)NC[C@@H](NC(=O)[C@H](Cc1nc2ccc(C(C)C)cc2s1)NC(=O)CC)C1CCCCC1` [Example 26, N—((S)-2-cyclohexyl-2-((S)-3-(6-isopropylbenzo[d]thiazol-2-yl)-2-propionamidopropanamido)ethyl)-2-((3,3-difluoroazetidin-1-yl)methyl)acrylamide], the IC50 is under 150 nM. Turning to `C=CC(=O)NC[C@@H](NC(=O)[C@H](Cc1nc2ccc(C(C)C)cc2s1)NC(=O)CC)C1CCCCC1` [Example 37, N—((S)-2-cyclohexyl-2-((S)-3-(6-isopropylbenzo[d]thiazol-2-yl)-2-propionamidopropanamido)ethyl)acrylamide], the IC50 is under 200 nM. The result for `C=C(CN1CCOCC1)C(=O)NC[C@H](CC1CCCCC1)NC(=O)[C@H](Cc1nc2ccc(Cl)cc2s1)NC(=O)CC` [Example 5, N—((S)-2-((S)-3-(6-chlorobenzo[d]thiazol-2-yl)-2-propionamidopropanamido)-3-cyclohexylpropyl)-2-(morpholinomethyl)acrylamide] reads 80.7 nM. `C=C(CN1CCOCC1)C(=O)NC[C@H](Cc1ccccc1)NC(=O)[C@H](Cc1cn2cc(Cl)ccc2n1)NC(=O)CC` [Example 35, N—((S)-2-((S)-3-(6-chloroimidazo[1,2-a]pyridin-2-yl)-2-propionamidopropanamido)-3-phenylpropyl)-2-(morpholinomethyl)acrylamide]: the IC50 was under 300 nM. The result for `C=C(CN1CCOCC1)C(=O)NC[C@H](Cc1ccccc1)NC(=O)[C@H](Cc1nc2ccc(CC)cc2s1)NC(=O)CC` [Example 8, N—((S)-2-((S)-3-(6-ethylbenzo[d]thiazol-2-yl)-2-propionamidopropanamido)-3-phenylpropyl)-2-(morpholinomethyl)acrylamide] reads 99.8 nM. Under `CCC(=O)N[C@@H](Cc1nc2ccc(C(C)C)cc2s1)C(=O)N[C@H](CNC(=O)CCl)C1CCCCC1` [Example 38, (S)—N—((S)-2-(2-chloroacetamido)-1-cyclohexylethyl)-3-(6-isopropylbenzo[d]thiazol-2-yl)-2-propionamidopropanamide] stands under 150 nM. Under `C=C(CN1CCC1)C(=O)NC[C@@H](NC(=O)[C@H](Cc1nc2ccc(C(C)C)cc2s1)NC(=O)CC)C1CCCCC1` [Example 25, 2-(azetidin-1-ylmethyl)-N—((S)-2-cyclohexyl-2-((S)-3-(6-isopropylbenzo[d]thiazol-2-yl)-2-propionamidopropanamido)ethyl)acrylamide] stands under 150 nM. Regarding `C=C(CN1CCN(C)CC1)C(=O)NC[C@@H](NC(=O)[C@H](Cc1nc2ccc(C(C)C)cc2s1)NC(=O)CC)C1CCCCC1` [Example 27, N—((S)-2-cyclohexyl-2-((S)-3-(6-isopropylbenzo[d]thiazol-2-yl)-2-propionamidopropanamido)ethyl)-2-((4-methylpiperazin-1-yl)methyl)acrylamide], the IC50 was under 150 nM. The result for `CCC(=O)N[C@@H](Cc1nc2ccc(Cl)cc2s1)C(=O)N[C@H](CNC(=O)C1=CCCN(C)C1)Cc1ccccc1` [Example 12, N—((S)-2-((S)-3-(6-chlorobenzo[d]thiazol-2-yl)-2-propionamidopropanamido)-3-phenylpropyl)-1-methyl-1,2,5,6-tetrahydropyridine-3-carboxamide] reads 292 nM; that for `C=C(CN1CCOCC1)C(=O)NC[C@@H](NC(=O)[C@H](Cc1nc2ccc(Cl)cc2s1)NC(=O)CC)C1CCCC1` [Example 6, N—((S)-2-((S)-3-(6-chlorobenzo[d]thiazol-2-yl)-2-propionamidopropanamido)-2-cyclopentylethyl)-2-(morpholinomethyl)acrylamide], 135 nM. For `C=C(CN1CCOCC1)C(=O)NC[C@H](Cc1ccccc1)NC(=O)[C@H](Cc1nc2ccc(Cl)cc2s1)NC(=O)CC` [Example 3, N—((S)-2-((S)-3-(6-chlorobenzo[d]thiazol-2-yl)-2-propionamidopropanamido)-3-phenylpropyl)-2-(morpholinomethyl)acrylamide], the IC50 was 156 nM.

Regarding `C=CS(=O)(=O)NC[C@H](Cc1cccnc1)NC(=O)[C@H](Cc1nc2ccc(C(C)C)cc2s1)NC(=O)CC` [Example 33, (S)-3-(6-isopropylbenzo[d]thiazol-2-yl)-2-propionamido-N—((S)-1-(pyridin-3-yl)-3-(vinylsulfonamido)propan-2-yl)propanamide], the IC50 was under 150 nM. Under `C=CC(=O)NC[C@H](Cc1ccncc1)NC(=O)[C@H](Cc1nc2ccc(C(C)C)cc2s1)NC(=O)CC` [Example 31, N—((S)-2-((S)-3-(6-isopropylbenzo[d]thiazol-2-yl)-2-propionamidopropanamido)-3-(pyridin-4-yl)propyl)acrylamide] stands under 150 nM; under `CCC(=O)N[C@@H](Cc1nc2ccc(C(C)C)cc2s1)C(=O)N[C@H](CNC(=O)/C=C/CN1CCOCC1)C1CCCCC1` [Example 39, (E)-N—((S)-2-cyclohexyl-2-((S)-3-(6-isopropylbenzo[d]thiazol-2-yl)-2-propionamidopropanamido)ethyl)-4-morpholinobut-2-enamide], under 150 nM; under `CCC(=O)N[C@@H](Cc1nc2ccc(Cl)cc2s1)C(=O)N[C@H](CNC(=O)CCl)Cc1ccccc1` [Example 20, (S)—N—((S)-1-(2-chloroacetamido)-3-phenylpropan-2-yl)-3-(6-chlorobenzo[d]thiazol-2-yl)-2-propionamidopropanamide], 360 nM. In the case of `C=CC(=O)NC[C@H](Cc1ccccc1)NC(=O)[C@H](Cc1nc2ccc(Cl)cc2s1)NC(=O)CC` [Example 1, N—((S)-2-((S)-3-(6-chlorobenzo[d]thiazol-2-yl)-2-propionamidopropanamido)-3-phenylpropyl)acrylamide], the IC50 was determined as 205 nM. `C=C(Cn1ccnc1)C(=O)NC[C@@H](NC(=O)[C@H](Cc1nc2ccc(C(C)C)cc2s1)NC(=O)CC)C1CCCCC1` [Example 24, 2-((1H-imidazol-1-yl)methyl)-N—((S)-2-cyclohexyl-2-((S)-3-(6-isopropylbenzo[d]thiazol-2-yl)-2-propionamidopropanamido)ethyl)acrylamide]: the IC50 is under 150 nM. Under `C=C(CN1CCN(CCO)CC1)C(=O)NC[C@@H](NC(=O)[C@H](Cc1nc2ccc(C(C)C)cc2s1)NC(=O)CC)C1CCCCC1` [Example 29, N—((S)-2-cyclohexyl-2-((S)-3-(6-isopropylbenzo[d]thiazol-2-yl)-2-propionamidopropanamido)ethyl)-2-((4-(2-hydroxyethyl)piperazin-1-yl)methyl)acrylamide] stands under 150 nM. For `C=C(CN1CCCCC1)C(=O)NC[C@@H](NC(=O)[C@H](Cc1nc2ccc(C(C)C)cc2s1)NC(=O)CC)C1CCCCC1` [Example 23, N—((S)-2-cyclohexyl-2-((S)-3-(6-isopropylbenzo[d]thiazol-2-yl)-2-propionamidopropanamido)ethyl)-2-(piperidin-1-ylmethyl)acrylamide], the IC50 was under 150 nM. Turning to `C=C(CN1CCOCC1)C(=O)NC[C@H](Cc1ccc(F)cc1)NC(=O)[C@H](Cc1nc2ccc(C(C)C)cc2s1)NC(=O)CC` [Example 36, N—((S)-3-(4-fluorophenyl)-2-((S)-3-(6-isopropylbenzo[d]thiazol-2-yl)-2-propionamidopropanamido)propyl)-2-(morpholinomethyl)acrylamide], the IC50 is under 150 nM. The result for `C=C(CN1CCC(F)(F)CC1)C(=O)NC[C@@H](NC(=O)[C@H](Cc1nc2ccc(C(C)C)cc2s1)NC(=O)CC)C1CCCCC1` [Example 30, N—((S)-2-cyclohexyl-2-((S)-3-(6-isopropylbenzo[d]thiazol-2-yl)-2-propionamidopropanamido)ethyl)-2-((4,4-difluoropiperidin-1-yl)methyl)acrylamide] reads under 150 nM; that for `C=C(CN1CCS(=O)(=O)CC1)C(=O)NC[C@@H](NC(=O)[C@H](Cc1nc2ccc(C(C)C)cc2s1)NC(=O)CC)C1CCCCC1` [Example 28, N—((S)-2-cyclohexyl-2-((S)-3-(6-isopropylbenzo[d]thiazol-2-yl)-2-propionamidopropanamido)ethyl)-2-((1,1-dioxidothiomorpholino)methyl)acrylamide], under 150 nM.
